Ends that are not written are not given here.
How the values were obtained:
[1] = test system: lower extremity ischemia model mouse; test: lower extremity ischemia model mouse (laser Doppler perfusion imaging, wound healing, new vessels); format: in vivo
Procedure: Mouse lower extremity ischemia model was prepared as follows.
C3H mice were anesthetized with nembutal and then skin of one side of lower extremity was cut open to expose artery of lower extremity. The lower extremity ischemia model was prepared by ligating artery of lower extremity at upper groin and lower popliteal region and resecting the artery of lower extremity at this region. The recovery of the blood flow after the resection of the artery of lower extremity by the development of the collateral circulation was observed.
C3H mice at the age of 6 months were divided into three groups; AM administration group, VEGF administration group, and control group. Mice of AM treatment group was continuously injected with AM (50 ng/h) by osmotic pump. Each mouse of VEGF administration group was injected with 20 μl of VEGF (5 ng/h) intramuscularly and used as positive control. Mice of control group were injected with PBS continuously.
The blood flow in the lower extremity ischemia model was monitored using laser Doppler perfusion imaging. The effect of AM on wound healing was also investigated. […] In FIG. 4, almost no blood flow in ischemic lower limb was observed on the first day of ischemic model preparation ([…] day 0).
The increasing of the number of new intramuscular blood vessel at the side of operation was also observed (FIG. 6, panel B). In contrast, in AM heterozygous knockout mice (AM +/−), and the mice administered with “AM 22-52”, a truncated form of AM consisting of from 22 to 52 amino acid sequence (AM antagonist), suppression of the recovery of blood flow and the angiogenesis were observed (FIG. 7). In FIG. 7, the mark “**” denotes p<0.01. Hereinafter the same.

claudin 5 = claudin 5 gene expression in HUVEC cultured on Matrigel, real-time PCR; format: cell-based, human
Procedure: (1) Adrenomedullin was administered exogenously to HUVEC cultured on Matrigel. After stimulating for 24 hours, the cell was recovered and RNA was extracted. The expression of claudin 5 gene was investigated using real-time PCR technique.
(2) “AM 22-52”, a truncated form of AM consisting of from 22 to 52 amino acid sequence was administered to HUVEC cultured on Matrigel to investigate the gene expression level.

Akt = test: phosphorylation of Akt in HUVEC, Western Blot; format: cell-based, human; conditions: AM 10^-11 to 10^-7 M in combination with VEGF 10 ng/ml
Procedure: (§1) Single administration of AM (10^−11 to 10^−7 M) alone, or administration of AM in combination with VEGF (10 ng/ml) to the cultivating system of human umbilical vein endothelial cell was carried out. Protein was extracted from cells and the phosphorylation of Akt and eNOS was investigated using Western Blot analysis.

eNOS = test: phosphorylation of eNOS in HUVEC, Western Blot; format: cell-based, human; conditions: AM 10^-11 to 10^-7 M in combination with VEGF 10 ng/ml
Procedure: as §1

VEGF [2] = test: expression of VEGF in femoral muscle of lower extremity ischemia model mouse, Western Blot; format: in vivo; conditions: AM administration group vs control
Procedure: The lower extremity ischemia model mouse prepared as in Example 2 was sacrificed by cervical dislocation, then femoral muscle sampled, from which protein was extracted and Western Blot analysis was conducted.

VEGF [3] = test: expression of VEGF in human artery endothelial cell (HAEC), RT-PCR; format: cell-based; conditions: AM concentration and stimulation time dependence
Procedure: Also, the expression of VEGF in human artery endothelial cell (HAEC) was analyzed using RT-PCR.

[4] = test system: AM heterozygous knockout mice (AM +/-); test: rescue test using AM heterozygous knockout mice (lower extremity ischemia model); format: in vivo, mouse; conditions: for formation of new blood vessel: AM +/- mice supplemented with AM or VEGF; for recovery of blood flow / angiogenesis effect: AM +/- mice supplemented with exogenous AM or VEGF
Procedure: Rescue test using AM knockout mouse may also be carried out. In the lower-extremity ischemia model prepared from the AM knockout mouse with decreased expression level of AM, angiogenesis potency decreases. When AM is administered exogenously to the AM knockout mouse, recovery of angiogenesis potency may be observed. This is referred to as “rescue test”.
In this example, The lower extremity ischemia model mice were prepared as in Example 2, and the recovery of blood flow of the AM heterozygous knockout mice (AM +/−) supplemented with exogenous AM or VEGF.

Flk-1 knockout mice = test: rescue test using Flk-1 knockout mice (lower extremity ischemia model); format: in vivo, mouse
Procedure: On the other hand, supplementation of AM to Flk-1, a receptor of VEGF knockout mice was conducted as a rescue test opposite to that mentioned above. The recovery of blood flow in Flk-1 knockout mice decreased in comparison with wild-type.

[5] = test system: angiogenesis enhancing factors and adhesion factor gene expression; test: gene array of sample from lower extremity ischemia model mice; format: in vivo, mouse
Source text: In this Example, the gene group of which expression level changes by the administration of AM were monitored by gene array using the sample form the lower extremity ischemia model mice

HUVEC = test: in vitro vascular permeability assay (FITC-dextran through HUVEC monolayer); format: cell-based, human
Procedure: In vitro vascular permeability assay is an assay in which the cells are cultured in the insert placed on the culture plate with semi-permeable membrane at the bottom to form monolayer, then the substance is added to the insert and the extent of permeability into the plate through the cell monolayer is measured. In particular, the extent of permeability is measured by addition of the substance for the vascular permeability test such as AM, followed by the addition of dextran labeled with FITC onto the cell monolayer, allowing it to permeate through the monolayer, and the fluorescence intensity in the plate well solution is measured. Thus, the suppression activity of AM on the vascular permeability may be investigated.
An insert made of semi-permeable membrane was placed on a cultivation plate, in which HUVEC was cultured so that the cells formed monolayer (EBM-2 medium, 5% CO2, 37° C., 24 hours). The extent of permeability was measured by addition of the substance for the vascular permeability test to the plate on which cell were cultured, followed by the addition of dextran labeled with FITC onto the cell monolayer, allowing it to permeate through the monolayer, and the fluorescence intensity in the plate well solution was measured.

[6] = test system: lower extremity edema model mice; test: lower extremity edema model mice by topical injection of carrageenan; format: in vivo, mouse; conditions: continuous administration of AM; carrageenan to pad of foot
Procedure: Transient edema may be prepared by topical injection of carrageenan, a hyperosmotic substance to pad of foot of mouse. Magnitude of the edema thus formed was evaluated by measuring the thickness of feet pad from time to time.

[7] = test system: cerebral edema model mice; test: cerebral edema model (cold injury of dura mater); format: in vivo, mouse; conditions: AM administration group vs control
Procedure: Mice were anesthetized with nembutal and then skull was opened. Injury was provided by contacting a cylinder cooled to −80° C. against dura mater. After 24 hours, mice were sacrificed, brain was removed and the increasing in the weight of the brain due to the cerebral edema was quantified. In the similar cerebral edema model, fluorescent-labeled dextran was injected into the tail vein and the leakage of the fluorescence dye out of the vessel in brain was quantified using fluorescent plate reader.

[8] = mice administered with AM 22-52
[9] = gene array, AM administration group vs control group

Substance: AM 22-52: a truncated form of AM consisting of from 22 to 52 amino acid sequence (AM antagonist) (TVQKLAHQIYQFTDKDKDNVAPRSKISPQGY; ends and bridges not checked; UniProt P35318 116-146, looked up, fragment) [reference compound]
- angiogenesis [1, 8]: suppression
- recovery of blood flow [1, 8]: suppression
- expression of claudin 5 (claudin 5): decreased

Substance: Adrenomedullin [AM]
- wound, amputation and shortening of lower limb ([1]; AM 50 ng/h, vs control group): Reduction of wound and decreasing in the number of amputation and shortening of lower limb
- percentage of the mice in which the lower limb is normal or with slight wound ([1]; AM administration group): more than 80%
- number of mice in which the lower limb was amputated or with severe wound ([1]; AM administration group vs control group): smaller than that in the control group
- blood flow in ischemic lower limb ([1]; Day 7 and 12 after ischemia, AM 50 ng/h): recovery of blood flow was observed
- number of new intramuscular blood vessel at the side of operation ([1]; administration of AM): increasing
- recovery of the blood flow, ratio ischemic side (L) / non-ischemic side (R) (L/R) ([1]; administration of AM): significant recovery in the blood flow
- recovery of the blood flow of lower extremity ([1]; laser Doppler perfusion imaging, AM 50 ng/h continuously by osmotic pump, C3H mice): Improvement in the recovery of the blood flow
- phosphorylation of Akt by VEGF (Akt): enhanced
- phosphorylation of eNOS by VEGF (eNOS): enhanced
- expression level of VEGF (VEGF [2]): increased from the early stage after the ischemia operation (day 1)
- expression level of VEGF (VEGF [3]): increased concentration- and time dependently
- formation of new blood vessel [4]: recovered to the level comparable to the wild-type
- recovery of blood flow / angiogenesis effect [4]: recovery of the angiogenesis effect
- recovery of blood flow (Flk-1 knockout mice; exogenous AM to Flk-1 knockout mice): no recovery of blood flow
- recovery of blood flow (Flk-1 knockout mice; exogenous AM to wild-type mice): enhance the recovery of blood flow
- expression levels of eNOS, Osteopontin, VEGF, VCAM-1 and the like ([5]; administration of AM in comparison with control group): increased
- COL18A1 expression, AM(+)/Control [5, 9]: 2.72
- Osteopontin expression, AM(+)/Control [5, 9]: 1.93
- PAI-1 expression, AM(+)/Control [5, 9]: 1.79
- PDGF-A expression, AM(+)/Control [5, 9]: 5.60
- PDGFRβ expression, AM(+)/Control [5, 9]: 1.58
- TGFβ expression, AM(+)/Control [5, 9]: 4.04
- Tie-2 expression, AM(+)/Control [5, 9]: 3.61
- VCAM-1 expression, AM(+)/Control [5, 9]: 3.65
- VEGF expression, AM(+)/Control [5, 9]: 1.50
- eNOS expression, AM(+)/Control [5, 9]: 1.71
- β-glycan expression, AM(+)/Control [5, 9]: 6.76
- vascular permeability (FITC-dextran through cell monolayer) (HUVEC; AM in addition to VEGF): suppressed the enhancement of vascular permeability by VEGF
- vascular permeability (FITC-dextran through cell monolayer) (HUVEC; substance alone): suppression of vascular permeability
- formation of edema at lower limb (thickness of feet pad) [6]: suppressed
- vascular permeability in brain (leakage of fluorescent-labeled dextran) [7]: suppressed in comparison with control
- weight of brain ([7]; 24 hours after injury): decreased
- expression of claudin 5 (claudin 5): enhanced

Substance: vascular endothelial growth factor [VEGF]
- formation of new blood vessel [4]: recovered to the level comparable to the wild-type
- recovery of blood flow / angiogenesis effect [4]: recovery of the angiogenesis effect
- vascular permeability (FITC-dextran through cell monolayer) (HUVEC; substance alone): enhanced vascular permeability
